Test results: patent US9682976B2, “Protein kinase C inhibitors and uses thereof” (Rigel Pharmaceuticals, Inc., priority 2012, dated 2017)

These compounds were tested on PKC mediated IL-2 production (assay: IL-2 ELISA, human primary T cell, anti CD3+CD28+). Settings: Homo sapiens, T-cell, 24 h, human primary T cells stimulated with αCD3 and αCD28, 24 hours.
Type: cell-based
Method in brief: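 Human peripheral blood T cells, pre-expanded with αCD3/αCD28 and IL-2 and then washed free of IL-2, were pre-incubated with compound for 1 h at 37° C. They were then stimulated on plates coated with […] αCD3 and 5 μg/ml αCD28, or with 0.5 ng/ml PMA plus 0.1 uM ionomycin in the counter assay. IL-2 in supernatants was measured by ELISA after 24 h.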

SMILES | EC50 [nM]
CC1(C)C[C@H](Nc2nc(Nc3ccc(N4CCC5(CC4)COC5)c(C#N)c3)ncc2F)C[C@@H]2CCCN21 [Compound 100, 5-(4-((7R,8aS)-5,5-dimethyloctahydroindolizin-7-ylamino)-5-fluoropyrimidin-2-ylamino)-2-(2-oxa-7-azaspiro[3.5]nonan-7-yl)benzonitrile] | 100 to 500
CC1(C)C[C@H](Nc2nc(Nc3ccc(N4CC5(COC5)C4)c(C#N)c3)ncc2F)C[C@@H]2CCCN21 [Compound 101, 5-(4-((7R,8aS)-5,5-dimethyloctahydroindolizin-7-ylamino)-5-fluoropyrimidin-2-ylamino)-2-(2-oxa-6-azaspiro[3.3]heptan-6-yl)benzonitrile] | 100 to 500
CC1(C)Oc2ccc(Nc3ncc(F)c(N[C@H]4C[C@H]5CCCN5C(C)(C)C4)n3)cc2-n2nnnc21 [Compound 102, N2-(4,4-dimethyl-4H-benzo[b]tetrazolo[1,5-d][1,4]oxazin-8-yl)-N4-((7S,8aR)-5,5-dimethyloctahydroindolizin-7-yl)-5-fluoropyrimidine-2,4-diamine] | 100 to 500
CC1(C)C[C@H](Nc2nc(Nc3ccc(N4CCN(S(C)(=O)=O)CC4)c(C#N)c3)ncc2F)C[C@@H]2CCCN21 [Compound 103, 5-((4-(((7R,8aS)-5,5-Dimethyloctahydroindolizin-7-yl)amino)-5-fluoropyrimidin-2-yl)amino)-2-(4-(methylsulfonyl)piperazin-1-yl)benzonitrile] | 100 to 500
CC1(C)C[C@H](Nc2nc(Nc3ccc4c(c3)OCC(=O)N4CC3CC3)ncc2F)C[C@@H]2CCCN21 [Compound 104, 4-(cyclopropylmethyl)-7-((4-(((7R,8aS)-5,5-dimethyloctahydroindolizin-7-yl)amino)-5-fluoropyrimidin-2-yl)amino)-2H-benzo[b][1,4]oxazin-3(4H)-one] | 100 to 500
CC1(C)Oc2cc(Nc3ncc(F)c(N[C@@H]4C[C@@H]5CCCN5C(C)(C)C4)n3)ccc2N(CC2CC2)C1=O [Compound 105, 4-(cyclopropylmethyl)-7-((4-(((7R,8aS)-5,5-dimethyloctahydroindolizin-7-yl)amino)-5-fluoropyrimidin-2-yl)amino)-2,2-dimethyl-2H-benzo[b][1,4]oxazin-3(4H)-one] | 500 to 1000
CC1(C)C[C@H](Nc2nc(Nc3ccc(N4CCOCC4)c(C#N)c3)ncc2F)C[C@@H]2CCCN21 [Compound 106, 5-((4-(((7R,8aS)-5,5-dimethyloctahydroindolizin-7-yl)amino)-5-fluoropyrimidin-2-yl)amino)-2-morpholinobenzonitrile] | 100 to 500
CC1(C)C[C@H](Nc2nc(Nc3ccc(N4CCC(O)CC4)c(C#N)c3)ncc2F)C[C@@H]2CCCN21 [Compound 107, 5-((4-(((7R,8aS)-5,5-dimethyloctahydroindolizin-7-yl)amino)-5-fluoropyrimidin-2-yl)amino)-2-(4-hydroxypiperidin-1-yl)benzonitrile] | 100 to 500
CN1CCN(c2ccc(Nc3ncc(F)c(N[C@@H]4C[C@@H]5CCCN5C(C)(C)C4)n3)cc2C#N)CC1 [Compound 108, 5-((4-(((7R,8aS)-5,5-dimethyloctahydroindolizin-7-yl)amino)-5-fluoropyrimidin-2-yl)amino)-2-(4-methylpiperazin-1-yl)benzonitrile] | < 100
Cn1nnn(-c2cc(Nc3ncc(C#N)c(N[C@@H]4C[C@@H]5CCCN5C(C)(C)C4)n3)c(F)cc2OC2CCOC2)c1=O (stereo partly shown) [Compound 111] | 100 to 500
Cn1nnn(-c2cc(Nc3ncc(C#N)c(N[C@@H]4C[C@@H]5CCCN5C(C)(C)C4)n3)c(F)cc2O[C@H]2CCOC2)c1=O [Compound 112] | 100 to 500
Cn1nnn(-c2cc(Nc3ncc(C#N)c(N[C@@H]4C[C@@H]5CCCN5C(C)(C)C4)n3)c(F)cc2OC2CCOCC2)c1=O [Compound 115, 4-(((7R,8aS)-5,5-dimethyloctahydroindolizin-7-yl)amino)-2-((2-fluoro-5-(4-methyl-5-oxo-4,5-dihydro-1H-tetrazol-1-yl)-4-((tetrahydro-2H-pyran-4-yl)oxy)phenyl)amino)pyrimidine-5-carbonitrile] | 500 to 1000
CC1(C)C[C@H](Nc2nc(Nc3ccc(N4CCN(C5COC5)CC4)c(C#N)c3)ncc2F)C[C@@H]2CCCN21 [Compound 116] | 100 to 500
Cn1nnn(-c2cc(Nc3ncc(F)c(N[C@@H]4C[C@@H]5CCCN5C(C)(C)C4)n3)ccc2N2CCN(C3COC3)CC2)c1=O [Compound 117, 1-(5-((4-(((7R,8aS)-5,5-dimethyloctahydroindolizin-7-yl)amino)-5-fluoropyrimidin-2-yl)amino)-2-(4-(oxetan-3-yl)piperazin-1-yl)phenyl)-4-methyl-1,4-dihydro-5H-tetrazol-5-one] | 1000 to 10000
CC1(C)C[C@H](Nc2nc(Nc3ccc(OC4CCNCC4)c(C(F)(F)F)c3)ncc2F)C[C@@H]2CCCN21 [Compound 118, N^4-((7R,8aS)-5,5-dimethyloctahydroindolizin-7-yl)-5-fluoro-N^2-(4-(piperidin-4-yloxy)-3-(trifluoromethyl)phenyl)pyrimidine-2,4-diamine] | 100 to 500
CC1(C)C[C@H](Nc2nc(Nc3ccc(O[C@@H]4CCNC[C@H]4F)c(C(F)(F)F)c3)ncc2F)C[C@@H]2CCCN21 [Compound 119] | < 100
CC1(C)C[C@H](Nc2nc(Nc3ccc(OC4CCN(C5COC5)CC4)c(C(F)(F)F)c3)ncc2F)C[C@@H]2CCCN21 [Compound 120] | 100 to 500
CC1(C)C[C@H](Nc2nc(Nc3ccc(O[C@H]4CCNC[C@@H]4F)c(C(F)(F)F)c3)ncc2F)C[C@@H]2CCCN21 [Compound 121] | < 100
CC1(C)C[C@H](Nc2nc(Nc3ccc(O[C@@H]4CCN(C5COC5)C[C@H]4F)c(C(F)(F)F)c3)ncc2F)C[C@@H]2CCCN21 [Compound 122] | 100 to 500
CC1(C)C[C@H](Nc2nc(Nc3ccc(O[C@H]4CCNC[C@@H]4F)c(Cl)c3)ncc2F)C[C@@H]2CCCN21 [Compound 123] | < 100

Continued, values first:

EC50 [nM] | SMILES
100 to 500 | Cn1nnn(-c2cc(Nc3ncc(F)c(N[C@@H]4C[C@@H]5CCCN5C(C)(C)C4)n3)c(F)cc2CCO)c1=O [Compound 93, 1-(5-(4-((7R,8aS)-octahydro-5,5-dimethylindolizin-7-ylamino)-5-fluoropyrimidin-2-ylamino)-4-fluoro-2-(2-hydroxyethyl)phenyl)-4-methyl-1H-tetrazol-5(4H)-one]
100 to 500 | CC(O)c1cc(F)c(Nc2ncc(F)c(N[C@@H]3C[C@@H]4CCCN4C(C)(C)C3)n2)cc1-n1nnn(C)c1=O (stereo partly shown) [Compound 94]
< 100 | CCc1cc(F)c(Nc2ncc(F)c(N[C@@H]3C[C@@H]4CCCN4C(C)(C)C3)n2)cc1-n1nnn(C)c1=O [Compound 95, 1-(5-(4-((7R,8aS)-octahydro-5,5-dimethylindolizin-7-ylamino)-5-fluoropyrimidin-2-ylamino)-2-ethyl-4-fluorophenyl)-4-methyl-1H-tetrazol-5(4H)-one]
< 100 | Cn1nnn(-c2cc(Nc3ncc(F)c(N[C@@H]4C[C@@H]5CCCN5C(C)(C)C4)n3)c(F)cc2C#CCO)c1=O [Compound 96, 1-(5-(4-((7R,8aS)-octahydro-5,5-dimethylindolizin-7-ylamino)-5-fluoropyrimidin-2-ylamino)-4-fluoro-2-(3-hydroxyprop-1-ynyl)phenyl)-4-methyl-1H-tetrazol-5(4H)-one]
100 to 500 | Cn1nnn(-c2cc(Nc3ncc(F)c(N[C@@H]4C[C@@H]5CCCN5C(C)(C)C4)n3)c(F)cc2CCCO)c1=O [Compound 97, 1-(5-(4-((7R,8aS)-octahydro-5,5-dimethylindolizin-7-ylamino)-5-fluoropyrimidin-2-ylamino)-4-fluoro-2-(3-hydroxypropyl)phenyl)-4-methyl-1H-tetrazol-5(4H)-one]
100 to 500 | Cn1nnn(-c2cc(Nc3ncc(F)c(N[C@@H]4C[C@@H]5CCCN5C(C)(C)C4)n3)c(F)cc2C#N)c1=O [Compound 98, 4-(4-((7R,8aS)-octahydro-5,5-dimethylindolizin-7-ylamino)-5-fluoropyrimidin-2-ylamino)-5-fluoro-2-(4,5-dihydro-4-methyl-5-oxotetrazol-1-yl)benzonitrile]
< 100 | C[C@H](CO)Oc1cc(F)c(Nc2ncc(F)c(N[C@@H]3C[C@@H]4CCCN4C(C)(C)C3)n2)cc1-n1nnn(C)c1=O [Compound 99]
100 to 500 | Cn1nnn(-c2cc(Nc3ncc(F)c(N[C@@H]4C[C@@H]5CCCN5C(C)(C)C4)n3)c(F)cc2O[C@@H]2CCOC2)c1=O [Compound 109, 1-(5-((4-(((7R,8aS)-5,5-dimethyloctahydroindolizin-7-yl)amino)-5-fluoropyrimidin-2-yl)amino)-4-fluoro-2-(((R)-tetrahydrofuran-3-yl)oxy)phenyl)-4-methyl-1,4-dihydro-5H-tetrazol-5-one]
100 to 500 | Cn1nnn(-c2cc(Nc3ncc(F)c(N[C@@H]4C[C@@H]5CCCN5C(C)(C)C4)n3)c(F)cc2O[C@H]2CCOC2)c1=O [Compound 110, 1-(5-((4-(((7R,8aS)-5,5-dimethyloctahydroindolizin-7-yl)amino)-5-fluoropyrimidin-2-yl)amino)-4-fluoro-2-(((S)-tetrahydrofuran-3-yl)oxy)phenyl)-4-methyl-1,4-dihydro-5H-tetrazol-5-one]
100 to 500 | Cn1nnn(-c2cc(Nc3ncc(C#N)c(N[C@@H]4C[C@@H]5CCCN5C(C)(C)C4)n3)c(F)cc2OC2COC2)c1=O [Compound 113, 4-(((7R,8aS)-5,5-dimethyloctahydroindolizin-7-yl)amino)-2-((2-fluoro-5-(4-methyl-5-oxo-4,5-dihydro-1H-tetrazol-1-yl)-4-(oxetan-3-yloxy)phenyl)amino)pyrimidine-5-carbonitrile]
500 to 1000 | Cn1nnn(-c2cc(Nc3ncc(F)c(N[C@@H]4C[C@@H]5CCCN5C(C)(C)C4)n3)c(F)cc2OC2CCOCC2)c1=O [Compound 114, 1-(5-((4-(((7R,8aS)-5,5-dimethyloctahydroindolizin-7-yl)amino)-5-fluoropyrimidin-2-yl)amino)-4-fluoro-2-((tetrahydro-2H-pyran-4-yl)oxy)phenyl)-4-methyl-1,4-dihydro-5H-tetrazol-5-one]
